Test results from patent EP0435693B1, “Pharmaceutical compositions containing 3-oxygermylpropionic acid polymers for inhibiting the degeneration of cells” (SANWA KAGAKU KENKYUSHO CO., LTD., priority 1989, dated 1991).

Tests used:
SD rats = assay: Acute toxicity test, per os, rats; format: in vivo
From the text: With (a) the 3-oxygermylpropionic acid according to this invention (hereinafter called SK-818) and (b) the composition of Preparation Ex. 1, SD rats and mice were subjected to acute and subacute (chronic) toxicity tests in conventional manner. (Groups of animals, 8-10 per group, were used for experimentation).

Type B chronic hepatitis = assay: Clinical test for Type B chronic hepatitis against placebo; format: in vivo, patients
Description: The efficacy of SK-818 against Type B chronic hepatitis was examined, using a placebo as control.
The subjects were patients who had been diagnosed by biopsy as chronic hepatitis before at most one year in principle, were positive to HBe antigens and had Type B chronic hepatitis in need of treatment.
• (i) The drug under test was a capsule containing 10 mg of SK-818. • (ii) The control consisted only of lactose (a placebo).
The subjects followed the standard prescription of three capsules a day and one capsule each meal over 16 weeks in principle.
The general examination of the functioning of the livers and blood and the measurement of HBe antigens and antibodies were all carried out by the Virus Hepatitis Research Foundation.

MRL/1 masculine mice = assay: Prevention of spontaneous nephritis of MRL/1 mice; format: in vivo; parameters: Blood-urinary nitrogen levels, BUN: unit not given here; conditions: for Blood-urinary nitrogen levels, BUN: day following the final administration
Description: The action of SK-818 on preventing the development of spontaneous nephritis of MRL/1 mice (or an impairment of the functioning of the kidney asaociated with aging) was examined.
Given amounts (0.1 mg/kg, 1.0 mg/kg and 10.0 mg/kg a day) of SK-818, in the form of a mixture of the composition of Preparation Ex. 1 with feed, were administered orally MRL/1 masculine mice of six-week age (16 for each group) twice a week over 12 weeks. In the meantime, urinary protein was measured once a week; urinary protein levels exceeding 100 mg/dl were taken as positive. Examination was then made of how many animals became positive at the respective week-ages. Moreover, blood-urinary nitrogen levels were determined on the day following the final administration to make serological/physiological and pathological estimations of the action of SK-818 on nephritis.
The urinary protein and blood-urinary nitrogen levels were measured with Protein Pre-test (made by Wako Junyaku K.K.) and Urinary Nitrogen B-Test according to the urease/indophenol method (made by Wako Junyaku K.K.), respectively.

Wistar masculine rats = assay: Relief of nephrotoxicity of mercuric chloride; format: in vivo
Description: The effect of SK-818 on the impairment of kidney-function by mercuric chloride was examined, using blood-urinary nitrogen levels as an index.
Mercuric chloride was subcutaneously administered to Wistar masculine rats (seven weeks of age) 6-10 per group, at a dose of 1.2 mg/kg. From 24 hours after the administration till the lapse of 96 hours, the animals were permitted to freely drink an aqueous solution containing 2,400 ppm of SK-818 (at an average dose of 231±14 mg/kg). […]

[1] = SK-818 against Placebo, time points with significance
[2] = determined by physicians, Total 95

With 3-oxygermylpropionic acid [SK-818] the LD50 (SD rats; female) was 7,050 or more mg/kg, the LD50 (SD rats; male) was 7,700 or more mg/kg and the GOT (Type B chronic hepatitis; 4W) was “↓ *”. The GPT (Type B chronic hepatitis; 4W) was “↓ *”, the “HBe antibodies (RIA%)” value (Type B chronic hepatitis; 4W) was “↑ *” and the “HBe antigens (EIA) log” value (Type B chronic hepatitis; 4W) was “↓***”. For the same substance, the “LDH (mu/ml)” value (Type B chronic hepatitis; 4W) was “↓ +”, the “Total Bilirubin (mg/dl)” value (Type B chronic hepatitis; 4W) was “↓ *” and the “AIP (KA)” value (Type B chronic hepatitis; 8W) was “↓ +”. The “Cholinesterase (ΔPH)” value (Type B chronic hepatitis; 8W) was “↑ *”, the GOT (Type B chronic hepatitis; 8W) was “↓ +” and the GPT (Type B chronic hepatitis; 8W) was “↓**”. For the same substance, the “HBe antibodies (RIA%)” value (Type B chronic hepatitis; 8W) was “↑ *”, the “HBe antigens (EIA) log” value (Type B chronic hepatitis; 8W) was “↓ **” and the “LDH (mu/ml)” value (Type B chronic hepatitis; 8W) was “↓ +”. For the same substance, the “Total Cholesterol (mg/dl)” value (Type B chronic hepatitis; 8W) was “↑ *”, the “AIP (KA)” value (Type B chronic hepatitis; 12W) was “↓ +” and the “Cholinesterase (ΔPH)” value (Type B chronic hepatitis; 12W) was “↑ *”. For the same substance, the GOT (Type B chronic hepatitis; 12W) was “↓***”, the GPT (Type B chronic hepatitis; 12W) was “↓***” and the “HBe antibodies (RIA%)” value (Type B chronic hepatitis; 12W) was “↑ **”. The “HBe antigens (EIA) log” value (Type B chronic hepatitis; 12W) was “↓***”, the “LDH (mu/ml)” value (Type B chronic hepatitis; 12W) was “↓ *” and the “Serum Albumin (g/dl)” value (Type B chronic hepatitis; 12W) was “↑ *”. For the same substance, the TTT (Type B chronic hepatitis; 12W) was “↓**”, the “Total Cholesterol (mg/dl)” value (Type B chronic hepatitis; 12W) was “↑ *” and the ZTT (Type B chronic hepatitis; 12W) was “↓**”. The “γ-GTP (mu/ml)” value (Type B chronic hepatitis; 12W) was “↓**”, the “γ-Globulin (g/dl)” value (Type B chronic hepatitis; 12W) was “↓**” and the GOT (Type B chronic hepatitis; 16W) was “↓***”. The GPT (Type B chronic hepatitis; 16W) was “↓***”, the “HBe antibodies (RIA%)” value (Type B chronic hepatitis; 16W) was “↑ *” and the “HBe antigens (EIA) log” value (Type B chronic hepatitis; 16W) was “↓***”. The “Serum Albumin (g/dl)” value (Type B chronic hepatitis; 16W) was “↑ +”, the TTT (Type B chronic hepatitis; 16W) was “↓***” and the “Total Cholesterol (mg/dl)” value (Type B chronic hepatitis; 16W) was “↑ *”. The ZTT (Type B chronic hepatitis; 16W) was “↓**”, the “γ-GTP (mu/ml)” value (Type B chronic hepatitis; 16W) was “↓ **” and the “γ-Globulin (g/dl)” value (Type B chronic hepatitis; 16W) was “↓***”. The “Cholinesterase (ΔPH)” value (Type B chronic hepatitis; Af4W (after 4 weeks)) was “↑ *”, the GOT (Type B chronic hepatitis; Af4W (after 4 weeks)) was “↓ **” and the GPT (Type B chronic hepatitis; Af4W (after 4 weeks)) was “↓ **”. The “HBe antibodies (RIA%)” value (Type B chronic hepatitis; Af4W (after 4 weeks)) was “↑ *”, the “HBe antigens (EIA) log” value (Type B chronic hepatitis; Af4W (after 4 weeks)) was “↓***” and the TTT (Type B chronic hepatitis; Af4W (after 4 weeks)) was “↓***”. For the same substance, the ZTT (Type B chronic hepatitis; Af4W (after 4 weeks)) was “↓**”, the “γ-GTP (mu/ml)” value (Type B chronic hepatitis; Af4W (after 4 weeks)) was “↓ **” and the “γ-Globulin (g/dl)” value (Type B chronic hepatitis; Af4W (after 4 weeks)) was “↓***”. The “Cholinesterase (ΔPH)” value (Type B chronic hepatitis; Af8W (after 8 weeks)) was “↑**”, the GOT (Type B chronic hepatitis; Af8W (after 8 weeks)) was “↓ **” and the GPT (Type B chronic hepatitis; Af8W (after 8 weeks)) was “↓ **”. For the same substance, the “HBe antibodies (RIA%)” value (Type B chronic hepatitis; Af8W (after 8 weeks)) was “↑ **”, the “HBe antigens (EIA) log” value (Type B chronic hepatitis; Af8W (after 8 weeks)) was “↓***” and the TTT (Type B chronic hepatitis; Af8W (after 8 weeks)) was “↓ *”. The “Total Cholesterol (mg/dl)” value (Type B chronic hepatitis; Af8W (after 8 weeks)) was “↑*”, the ZTT (Type B chronic hepatitis; Af8W (after 8 weeks)) was “↓ *” and the “γ-GTP (mu/ml)” value (Type B chronic hepatitis; Af8W (after 8 weeks)) was “↓ *”. The “γ-Globulin (g/dl)” value (Type B chronic hepatitis; Af8W (after 8 weeks)) was “↓ *”, the “Cholinesterase (ΔPH), Differences between groups” value (Type B chronic hepatitis; [1]) was 4w* 12W** Af4W* 8w** 16w* Af8w+ and the “GPT, Differences between groups” value (Type B chronic hepatitis; [1]) was 8w* 12w** 16W* Af4w*. The “HBe antibodies (RIA%), Differences between groups” value (Type B chronic hepatitis; [1]) was 4W* 12W* 16W* Af8w+, the “HBe antigens (EIA) log, Differences between groups” value (Type B chronic hepatitis; [1]) was 4W** 12W* 16W* Af4w* and the “TTT, Differences between groups” value (Type B chronic hepatitis; [1]) was “Af4w+”. The “Total Cholesterol (mg/dl), Differences between groups” value (Type B chronic hepatitis; [1]) was 8W* 16W** 12W** Af8w*, the “γ-Globulin (g/dl), Differences between groups” value (Type B chronic hepatitis; [1]) was 12W+ Af4w* 16w+ Af8w+ and the “Rate of Amelioration, Slightly ameliorated or more” value (Type B chronic hepatitis; determined by physicians, P=0.0011 against placebo) was 57.9%. The “Rate of Amelioration, Ameliorated to some or higher extent” value (Type B chronic hepatitis; determined by physicians, P=0.0114 against placebo) was 36.8, the “Degree of Amelioration: Ameliorated to some extent (number of cases)” value (Type B chronic hepatitis; [2]) was 23 and the “Degree of Amelioration: Less aggravated (number of cases)” value (Type B chronic hepatitis; [2]) was 5. For the same substance, the “Degree of Amelioration: Nochange (number of cases)” value (Type B chronic hepatitis; [2]) was 31, the “Degree of Amelioration: Slightly ameliorated (number of cases)” value (Type B chronic hepatitis; [2]) was 20 and the “Degree of Amelioration: aggravated (number of cases)” value (Type B chronic hepatitis; [2]) was 4. The “Degree of Amelioration: seriously aggravated (number of cases)” value (Type B chronic hepatitis; [2]) was 0, the “Degree of Amelioration: Remarkably ameliorated (number of cases)” value (Type B chronic hepatitis; determined by physicians, Total 95, 10 mg capsule three a day over 16 weeks) was 12 and the “Number of animals with positive urinary protein levels” value (shortened to “Number of animals”) (MRL/1 masculine mice; 0.1 mg/kg, 16 week-age, positive = exceeding 100 mg/dl) was 4/15. For the same substance, the “Number of animals” value (MRL/1 masculine mice; 0.1 mg/kg, 17 week-age) was 7/15, the “Number of animals” value (MRL/1 masculine mice; 0.1 mg/kg, 18 week-age) was 10/15 and the “Blood-urinary nitrogen levels, BUN” value (MRL/1 masculine mice; 0.1 mg/kg) was 32.2±1.6. For the same substance, the “Number of animals” value (MRL/1 masculine mice; 1 mg/kg, 16 week-age) was 4/15, the “Number of animals” value (MRL/1 masculine mice; 1 mg/kg, 17 week-age) was 6/15 and the “Number of animals” value (MRL/1 masculine mice; 1 mg/kg, 18 week-age) was 8/15. For the same substance, the “Blood-urinary nitrogen levels, BUN” value (MRL/1 masculine mice; 1 mg/kg) was 35.5±3.3, the “Number of animals” value (MRL/1 masculine mice; 10 mg/kg, 16 week-age) was 2/15 and the “Number of animals” value (MRL/1 masculine mice; 10 mg/kg, 17 week-age) was 4/15. The “Number of animals” value (MRL/1 masculine mice; 10 mg/kg, 18 week-age) was 8/15, the “Blood-urinary nitrogen levels, BUN” value (MRL/1 masculine mice; 10 mg/kg) was 29.3±1.7 and the “increase in the blood-urinary nitrogen levels” value (MRL/1 masculine mice; At 10 mg/kg) was “significantly inhibited”. For the same substance, the “increase in the urinary protein levels” value (MRL/1 masculine mice; At 10 mg/kg) was “remarkably inhibited”, the “glomeruli that become more morbid” value (MRL/1 masculine mice; groups medicated with SK-818, control group 57 %) was 23-34% and the Blood-urinary nitrogen (Wistar masculine rats; 0 hour, mercuric chloride 1.2 mg/kg s.c.) was 15.1 ± 0.4 mg/dL. It also gave a Blood-urinary nitrogen (Wistar masculine rats; 24 hours after mercuric chloride, drinking of 2400ppm aqueous solution starts at 24 hours) of 31.9 ± 1.3 mg/dL, a Blood-urinary nitrogen (Wistar masculine rats; 48 hours after mercuric chloride, 2400ppm aqueous solution) of 50.6 ± 9.8 mg/dL and a Blood-urinary nitrogen (Wistar masculine rats; 72 hours after mercuric chloride, 2400ppm aqueous solution) of 45.9 ± 13.8 mg/dL. For the same substance, the Blood-urinary nitrogen (Wistar masculine rats; 92 hours after mercuric chloride, 2400ppm aqueous solution) was 30.9 ± 9.4 mg/dL.
